What was measured:
[1] = test system: LN229 cells; test: Apoptosis via Annexin V staining in LN229; type: cell-based; conditions: LN229 cotreated with PP242 (50 nM) and analog (100 nM), 24 h
[2] = molecular target: T1, hnRNP A1 binding to cyclin D1 or c-MYC IRES RNAs (Homo sapiens, UniProt P09651); test: RNA-pull down assay with biotinylated cyclin D1 or c-MYC IRES RNAs; type: cell-based
T1 construct: endogenous in cells; host or cells: LN229 glioblastoma cells; 293T cells
Experimental: For immunopurification of eIF4E and bound RNA (21), cells were lysed in buffer containing 50 mM Tris-HCl (pH 7.4), 300 mM NaCl, 0.5% NP-40, 10 mM NaF, 1 mM sodium orthovanidate, 1 mM PMSF, 1.5% aprotinin and SUPERase-IN (ThermoFisher Scientific), 0.025 units/ml, using a Dounce homogenizer at 4° C. Extracts were cleared by centrifugation and immunoprecipitated with eIF4E or control IgG. Beads were washed and obtained RNA was subjected to quantitative RTPCR. For quantitative RT-PCR, extraction of RNA was performed using Trizol (ThermoFisher). Total RNA was then quantified and integrity assessed using an Agilent 2100 Bioanalyzer (Agilent Technology). Total RNA was reverse transcribed with random primers using the RETROscript Kit from ThermoFisher. SYBR Green quantitative PCR was performed in triplicate in 96-well optical plates on an ABI Prism 7000 Sequence Detection System (Life Technologies) according to the manufacturer's instructions. Primer sequences for CCND1, c-MYC and actin are available upon request. […]
(B) Schematic diagrams of the dicistronic constructs used in this study. […] Input and bound fractions were analyzed by immunoblotting using hnRNP A1 antibodies. […] Bound CCND1 or c-MYC RNAs were detected via RT-PCR. […]

[3] = molecular target: T2, UP1 fragment of hnRNP A1 / cyclin D1 or c-MYC IRES RNAs (Homo sapiens, UniProt P09651); test: Filter binding assay of GST-tagged hnRNP A1 mutants with IRES RNAs; conditions: for association of UP1 fragment (a.a. 1-196) with cyclin D1 or c-MYC IRESs: GST-tagged protein
T2 construct: The UP1 fragment (a.a. 1-196) containing RRM1 and RRM2; made in house; host or cells: HEK293 cells
Experimental: Filter binding assays were performed as previously described (18,23). GSTtagged hnRNP A1 or hnRNP A1 deletion mutants were added to in vitro transcribed 32Plabeled RNAs corresponding to either the cyclin D1 or c-MYC IRESs in separate reactions in a volume of 10 μl in buffer containing 5 mM HEPES (pH 7.6), 30 mM KCl, 2 mM MgCl2, 200 mM DTT, 4% glycerol and 10 ng yeast tRNA for 10 min at room temperature. 8 μl of each binding reaction was applied to nitrocellulose membranes on a slot blot apparatus (Minifold II, Schleicher & Schuell). Membranes were washed and dried, and signals quantified using a phosphorimager.
To begin to investigate the mechanism of action of C11 and IRES-J007, it was initially determined whether the UP1 fragment of hnRNP A1 was sufficient to recapitulate C11 or IRESJ007-mediated inhibition of IRES binding to this ITAF. The relative association between the mutant proteins and either the cyclin D1 or c-MYC IRESs was determined by filter binding assays in the absence or presence of the inhibitors (FIG. 4B). […] Additionally, a mutant encompassing residues 103-372, containing RRM2 bound both IRES sequences and binding was reduced in the presence of either of the inhibitors. […] The presence of RRM2 is necessary and appears to cooperate with RRM1 to mediate IRES binding that is sensitive to C11 or IRES-J007. Finally, UP1 is capable of IRES binding that is blocked by either C11 or the analog IRES-J007.
Mutant 1-196 constitutes the Up1 fragment of full-length human hnRNP A1. In the Δ130-158 mutant, the sequences encompassing RRM2 have been removed. (B) Binding of either cyclin D1 (top panel) or c-MYC (bottom panel) IRES RNAs to GST-tagged hnRNP A1 mutants in the absence or presence of C11 or IRES-J007 as assayed by filter binding. The mean and +SD are shown for three independent experiments.

[4] = test system: human cyclin D1 IRES; test: Dicistronic IRES mRNA reporter assay (firefly luciferase), cyclin D1 IRES; type: cell-based; conditions: 293T cells, 50 nM, 24 h

T2 sequence (P09651 1-196): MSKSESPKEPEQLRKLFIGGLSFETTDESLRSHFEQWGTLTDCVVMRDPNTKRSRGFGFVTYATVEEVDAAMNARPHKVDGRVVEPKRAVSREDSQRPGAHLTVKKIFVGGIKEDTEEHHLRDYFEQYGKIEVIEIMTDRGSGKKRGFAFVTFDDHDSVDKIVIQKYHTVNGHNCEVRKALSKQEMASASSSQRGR
T1 sequence (P09651 whole entry): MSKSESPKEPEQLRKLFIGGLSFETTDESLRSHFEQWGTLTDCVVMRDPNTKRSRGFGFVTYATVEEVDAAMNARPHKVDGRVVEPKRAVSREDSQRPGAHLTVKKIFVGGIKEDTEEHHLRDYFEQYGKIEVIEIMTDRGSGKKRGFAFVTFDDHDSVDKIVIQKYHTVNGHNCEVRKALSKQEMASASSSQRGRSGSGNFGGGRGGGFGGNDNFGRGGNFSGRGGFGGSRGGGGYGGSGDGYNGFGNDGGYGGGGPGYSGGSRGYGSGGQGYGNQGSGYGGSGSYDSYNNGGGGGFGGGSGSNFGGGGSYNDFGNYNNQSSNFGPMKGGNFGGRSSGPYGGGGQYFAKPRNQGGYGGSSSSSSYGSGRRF

Structure (SMILES) | % Apoptosis (100 nM) [1] [%] | hnRNP A1 binding to cyclin D1 or c-MYC IRES RNAs ([2]; extracts of LN229 cells treated with 50 nM) | association of UP1 fragment (a.a. 1-196) with cyclin D1 or c-MYC IRESs [3] | basal cyclin D1 IRES activity [4] | ability to block cyclin D1 or c-MYC IRES-hnRNP A1 interactions relative to C11 ([2]; 293T cell extracts) | ability to block UP1/IRES RNA interactions compared to C11 [3]
COc1ccc(CN2C(=O)C(Cl)=C(Cl)C2=O)c(OC)c1 [Compound C11, reference compound] | 25.9 | markedly reduced hnRNP A1 binding | blocked association | reduced IRES activity | – | –
COc1ccc(CN2C(=O)c3ccccc3C2=O)c(OC)c1 [IRES-J007, 2-((2,4-Dimethoxyphenyl)methyl)isoindoline-1,3-dione] | 62.4 | – | blocked association | reduced IRES activity | improved ability | modest, yet significant increase

Reference: patent publication US20210220331A1, “INHIBITORS OF IRES-MEDIATED PROTEIN SYNTHESIS” (The Regents of the University of California, priority 2016, published 2021)
